Results as given in patent US20260315487A1, “IKK-ALPHA INHIBITORS” (Cancer Research Technology Limited, priority 2023, published 2026).

Columns and labels:
Type in all cases: biochemical
IKKα over IKKβ = test: selectivity for IKKα over IKKβ from the kinase assay
Description: (§1) To examine the pyrrolo[2,3 -b]pyridines as an alternative scaffold, we adopted the AIPP core because it had similar dimensions to 1 SU909, with HBD/HBA motifs positioned at the scaffold extremities to interact with both the hinge region and the G-loop wall of IKKα, a rationale we had previously proposed as the basis for imparting selectivity. A preliminary set of AIPP derivatives was designed to explore its utility as an IKK-targeting scaffold, whilst incorporating additional functionality through which to introduce selectivity for the IKKα isoform (2-4 SU1087, SU1266 and SU1253; FIG. 3). This was achieved by initially adopting two different approaches: either appending a hydrophobic moiety to the pyrrolo[2,3 -b]pyridine motif as a fused form to afford the tricyclic derivatives 2 and 3 SU1266 and SU1087, or as a phenyl substituent to introduce flexibility with the central pyrrolo[2,3 -b]pyridine moiety in 4 SU1253 . […] The pyrrolo[2,3 -b]pyridine was bound to the hinge region in the classical HBA/HBD motif with the GK+3 NH and C═O backbone, whilst the aminoindazole projected towards the top of the pocket to interact with the G-loop (FIG. 4A). […] In both isoforms, the 2 -phenyl moiety was oriented out from the hinge towards the exposed solvent area.
To shift the selectivity profile towards IKKα, we selected 4 SU1253 for structural optimization based on the notion that sigma-bond rotation between the phenyl ring and the pyrrolo[2,3 -b]pyridine would inbuild the flexibility required to engage with the three dimensional array of residues nearby to exploit differences between the two isoforms. Furthermore, this would enable the inclusion of moieties that could also project into solvent and address solubility considerations. Small groups (NH2, OH, OMe, OEt and F) were initially introduced into the phenyl ring to evaluate their impact on the selectivity profile against both IKKs (5 a-g SU1354 -SU1373, Table 2 ). Our goal was to achieve a 1:50 selectivity ratio of IKKα to IKKβ, with a minimum IKKβ inhibitory Ki of 500 nM.

IKKβ = biological target: T1, IKKβ (Homo sapiens, UniProt O14920); test: in-house DELFIA kinase assay, IKKβ
T1 sequence (O14920 1-756): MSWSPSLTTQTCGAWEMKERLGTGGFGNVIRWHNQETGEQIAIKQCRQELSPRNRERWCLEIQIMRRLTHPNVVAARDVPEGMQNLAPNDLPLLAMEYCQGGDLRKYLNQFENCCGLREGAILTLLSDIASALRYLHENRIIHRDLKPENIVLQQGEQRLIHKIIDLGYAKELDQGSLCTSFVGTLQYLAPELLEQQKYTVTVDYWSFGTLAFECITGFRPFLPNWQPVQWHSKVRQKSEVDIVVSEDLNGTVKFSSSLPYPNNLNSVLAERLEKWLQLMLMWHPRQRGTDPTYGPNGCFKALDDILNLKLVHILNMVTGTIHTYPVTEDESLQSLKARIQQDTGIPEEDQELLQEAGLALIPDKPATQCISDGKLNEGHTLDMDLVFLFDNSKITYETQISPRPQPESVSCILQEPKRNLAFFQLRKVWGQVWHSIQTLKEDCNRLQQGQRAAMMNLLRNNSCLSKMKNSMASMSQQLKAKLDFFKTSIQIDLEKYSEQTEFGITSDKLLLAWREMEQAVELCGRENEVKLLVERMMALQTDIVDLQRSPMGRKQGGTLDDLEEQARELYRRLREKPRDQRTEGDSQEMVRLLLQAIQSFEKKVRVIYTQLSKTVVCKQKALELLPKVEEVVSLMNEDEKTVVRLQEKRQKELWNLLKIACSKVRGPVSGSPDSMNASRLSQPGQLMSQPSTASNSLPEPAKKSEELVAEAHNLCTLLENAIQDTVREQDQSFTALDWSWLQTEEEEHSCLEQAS
Description: To examine the pyrrolo[2,3 -b]pyridines as an alternative scaffold, we adopted the AIPP core because it had similar dimensions to 1 SU909, with HBD/HBA motifs positioned at the scaffold extremities to interact with both the hinge region and the G-loop wall of IKKα, a rationale we had previously proposed as the basis for imparting selectivity. A preliminary set of AIPP derivatives was designed to explore its utility as an IKK-targeting scaffold, whilst incorporating additional functionality through which to introduce selectivity for the IKKα isoform (2-4 SU1087, SU1266 and SU1253; FIG. 3). This was achieved by initially adopting two different approaches: either appending a hydrophobic moiety to the pyrrolo[2,3 -b]pyridine motif as a fused form to afford the tricyclic derivatives 2 and 3 SU1266 and SU1087, or as a phenyl substituent to introduce flexibility with the central pyrrolo[2,3 -b]pyridine moiety in 4 SU1253 .

IKKα = biological target: T2, IKKα (Homo sapiens, UniProt O15111); test: in-house DELFIA kinase assay, IKKα
T2 sequence (O15111 1-745): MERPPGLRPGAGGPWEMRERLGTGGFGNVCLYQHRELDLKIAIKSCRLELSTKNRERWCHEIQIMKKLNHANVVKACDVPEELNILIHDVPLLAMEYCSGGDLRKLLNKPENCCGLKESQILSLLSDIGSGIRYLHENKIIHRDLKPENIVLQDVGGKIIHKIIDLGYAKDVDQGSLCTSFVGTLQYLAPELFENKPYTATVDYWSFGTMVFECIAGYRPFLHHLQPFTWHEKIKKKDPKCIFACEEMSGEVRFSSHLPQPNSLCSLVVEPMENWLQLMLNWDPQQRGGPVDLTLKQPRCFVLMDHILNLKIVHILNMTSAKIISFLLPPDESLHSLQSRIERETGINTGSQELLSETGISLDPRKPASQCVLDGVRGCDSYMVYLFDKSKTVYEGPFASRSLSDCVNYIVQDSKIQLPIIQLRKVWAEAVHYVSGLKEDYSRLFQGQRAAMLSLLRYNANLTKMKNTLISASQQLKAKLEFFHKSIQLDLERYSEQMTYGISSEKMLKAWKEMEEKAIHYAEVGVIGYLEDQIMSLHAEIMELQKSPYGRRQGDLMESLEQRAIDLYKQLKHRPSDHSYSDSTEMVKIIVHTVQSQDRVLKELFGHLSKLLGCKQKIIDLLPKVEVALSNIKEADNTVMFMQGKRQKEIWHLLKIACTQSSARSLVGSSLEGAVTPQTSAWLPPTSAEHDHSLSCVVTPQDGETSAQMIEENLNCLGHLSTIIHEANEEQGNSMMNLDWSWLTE
Description: as §1

SMILES	Ki (IKKβ) [nM]	Ki (IKKα) [nM]	selectivity for IKKα over IKKβ, in words (IKKα over IKKβ)	IKKβ inhibition, in words (IKKβ)
CC(C)COc1cccc(-c2cc3c(-c4ccc5[nH]nc(N)c5c4)ccnc3[nH]2)c1 [5o SU1367, 5-(2-(3 -Isobutoxyphenyl)-1 H-pyrrolo[2,3-b]pyridin-4-yl)-1 H-indazol-3-amine]	458	19	tended to improve selectivity	lowest activity against IKKβ
Nc1n[nH]c2ccc(-c3ccnc4[nH]c(-c5ccc(OCc6ccccc6)cc5)cc34)cc12 [5s SU1334]	189	16	tended to improve IKKβactivity to reduce selectivity	
Nc1n[nH]c2ccc(-c3ccnc4[nH]c(-c5cccc(OCCN6CCOCC6)c5)cc34)cc12 [5y SU1336, 5-(2-(3-(2 -Morpholinoethoxy)phenyl)-1 H-pyrrolo[2,3-b]pyridin-4-yl)-1 H-indazol-3-amine]	29	9		good IKKβ inhibition
COCCNc1cc(OCc2ccccc2)cc(-c2cc3c(-c4ccc5[nH]nc(N)c5c4)ccnc3[nH]2)c1 [6c SU1365, 5-(2-(3-(Benzyloxy)-5-((2-methoxyethyl)amino)phenyl)-1 H-pyrrolo[2,3-b]pyridin-4-yl)-1 H-indazol-3-amine]	1530	26		
Nc1n[nH]c2ccc(-c3ccnc4[nH]c(-c5cncc(OCc6ccccc6)c5)cc34)cc12 [6e SU1337, 5-(2-(5-(Benzyloxy)pyridin-3-yl)-1 H-pyrrolo[2,3-b]pyridin-4-yl)-1 H-indazol-3-amine]	1550	21		
Nc1n[nH]c2ccc(-c3ccnc4[nH]c(-c5cc(F)nc(CNc6ccccc6)c5)cc34)cc12 [6f SU1394, 5-(2-(2 -Fluoro-6-((phenylamino)methyl)pyridin-4-yl)-1 H-pyrrolo[2,3-b]pyridin-4-yl)-1 H-indazol-3-amine]	503	33		
Nc1n[nH]c2ccc(-c3ccnc4[nH]c(-c5ccnc(SCc6ccccc6)c5)cc34)cc12 [6h SU1615, 5-(2-(2-(Benzylthio)pyridin-4-yl)-1 H-pyrrolo[2,3-b]pyridin-4-yl)-1 H-indazol-3-amine]	1180	5		
Nc1n[nH]c2ccc(-c3ccnc4[nH]c(-c5cc(OCc6ccccc6)ccn5)cc34)cc12 [6j SU1602, 5-(2-(4-(Benzyloxy)pyridin-2-yl)-1 H-pyrrolo[2,3-b]pyridin-4-yl)-1 H-indazol-3-amine]	2300	25		

Further lines, with some results ahead:

Ki (IKKβ) [nM]	Ki (IKKα) [nM]	SMILES	selectivity for IKKα over IKKβ, in words (IKKα over IKKβ)	IKKβ inhibition, in words (IKKβ)
191	10	Nc1n[nH]c2ccc(-c3ccnc4[nH]c(-c5cccc(CNC6CCCC6)c5)cc34)cc12 [5n SU1550, 5-(2-(3-((cyclopentylamino)methyl)phenyl)-1 H-pyrrolo[2,3-b]pyridin-4-yl)-1 H-indazol-3-amine]	tended to improve selectivity	
67	4	Cc1ccc(S(=O)(=O)Nc2ccc(-c3cc4c(-c5ccc6[nH]nc(N)c6c5)ccnc4[nH]3)cc2)cc1 [5u SU1283, N-(4-(4-(3 -Amino-1 H-indazol-5-yl)-1 H-pyrrolo[2,3-b]pyridin-2-yl)phenyl)-4-methylbenzenesulfonamide]	tended to improve IKKβactivity to reduce selectivity	
166	43	COc1ccc(COc2cccc(-c3cc4c(-c5ccc6[nH]nc(N)c6c5)ccnc4[nH]3)c2)cc1 [5z SU1363, 5-(2-(3-((4 -Methoxybenzyl)oxy)phenyl)-1 H-pyrrolo[2,3-b]pyridin-4-yl)-1 H-indazol-3-amine]		
5030	59	Nc1n[nH]c2ccc(-c3ccnc4[nH]c(-c5cc(F)cc(OCc6ccccc6)c5)cc34)cc12 [6a SU1371, 5-(2-(3-(Benzyloxy)-5-fluorophenyl)-1 H-pyrrolo[2,3-b]pyridin-4-yl)-1 H-indazol-3-amine]		
1220	29	COCCOCc1cc(OCc2ccccc2)cc(-c2cc3c(-c4ccc5[nH]nc(N)c5c4)ccnc3[nH]2)c1 [6b SU1358, 5-(2-(3-(Benzyloxy)-5-((2-methoxyethoxy)methyl)phenyl)-1 H-pyrrolo[2,3-b]pyridin-4-yl)-1 H-indazol-3-amine]		
22	12	Nc1n[nH]c2ccc(-c3ccnc4[nH]c(-c5ccc(OCc6ccccc6)nc5)cc34)cc12 [6d SU1350, 5-(2-(6-(Benzyloxy)pyridin-3-yl)-1 H-pyrrolo[2,3-b]pyridin-4-yl)-1 H-indazol-3-amine]	reduced selectivity	
3000	127	Nc1n[nH]c2ccc(-c3ccnc4[nH]c(-c5cc(F)nc(SCc6ccccc6)c5)cc34)cc12 [6i SU1380, 5-(2-(2-(Benzylthio)-6-fluoropyridin-4-yl)-1 H-pyrrolo[2,3-b]pyridin-4-yl)-1 H-indazol-3-amine]		
1600	42	Nc1n[nH]c2ccc(-c3ccnc4[nH]c(-c5ccnc(OCCc6ccccc6)c5)cc34)cc12 [6l SU1621, 5-(2-(2 -Phenethoxypyridin-4-yl)-1 H-pyrrolo[2,3-b]pyridin-4-yl)-1 H-indazol-3-amine]		
